For `Cn1ncc(NCCN2CCC(c3noc4cc(F)ccc34)CC2)cc1=O`, the melting point was 200 to 202 °C.
In the case of `CC(C)NCC(O)COc1cccc2c1CC1OC1C2` (stereo unspecified), the melting point is reported as 106 to 110 °C.
Work on `Cn1cccc1C=CC1=CC(=O)C(C)(C)O1` yielded a melting point of 98.5 to 100 °C.
`CN(CCO)Cc1ccc(-c2ccc3c(Nc4ccc(Sc5nccn5C)c(Cl)c4)c(C#N)cnc3c2)nc1` showed a melting point of 197 to 199 °C.
For `COC(=O)c1cccc(C(=O)Nc2cccc3cc(Br)cnc23)c1`, the melting point was 157 °C.
Molecule `COc1c2c(c(OC)c(OC)c1OC)CC(CCCCCCCCOC(C)=O)C2` has a melting point of 47 to 48 °C.
Work on `CCC(CC)N(C[C@@H]1CCC[C@H](CN(C(=O)Nc2ccc(N(C)C)cc2)C(CC)CC)C1)C(=O)Nc1ccc(N(C)C)cc1` yielded a melting point of 157 to 160 °C.
`ON=CNc1ccc(N2CCOCC2)nc1` showed a melting point of 172 to 174 °C.
With `COc1nc(O)cc(=O)n1C` the melting point was 170 to 171 °C.
For `COC(=O)C1=Cc2cc(Cl)ccc2OC1`, the melting point was 106 to 109 °C.
Molecule `CCOC(=O)c1ccc(NC(=O)N(CCc2ccccc2)c2ccc3c(c2)C(C)(C)CCC3(C)C)cc1` has a melting point of 223 to 225 °C.
Molecule `O=C1CCCN(C(=O)c2ccc([N+](=O)[O-])cc2Cl)c2ncccc21` has a melting point of 162 to 164 °C.
With `CCN(CC)C(=O)CCc1ccc(N)c([N+](=O)[O-])c1` the melting point was 98 to 99 °C.
`Cc1ccccc1N=C=Nc1ccccc1C` gave a melting point of 3.5 to 4.5 °C.
Work on `CC(C)c1n[nH]c2c(NCc3ccccc3O)ncnc12` yielded a melting point of 214 to 217 °C.
`Clc1ccc(-c2onc3c(CBr)cccc23)cc1` gave a melting point of 153 to 155 °C.
Work on `CC(C)c1cc(-c2c3ccccc3c(Br)c3sc4ccccc4c23)cc(C(C)C)c1OCC(=O)O` yielded a melting point of 220 to 221 °C.
For `O=C(O)c1cc2n(c1)CCc1ccccc1C2=O`, the melting point was 287 to 290 °C.
Molecule `COC(=O)c1ccc2c(c1)CN(C(=O)c1ccc(-c3ccccc3)cc1)C2` has a melting point of 172 to 180 °C.
Work on `COC(=O)CN1CC(N2C(=O)c3ccccc3C2=O)C1=O` (stereo unspecified) yielded a melting point of 178 to 180 °C.
`C=Cn1cc(C(=O)O)c(=O)c2cc(F)c(F)c(F)c21` gave a melting point of 186 to 187 °C.
Molecule `NCCC1CCc2ccc3c(c21)NC(=O)CO3` (stereo unspecified) has a melting point of 128 to 134 °C.
`CCCN(CCC)Cc1cnc(-c2ncn3c2CN(C)C(=O)c2ccccc2-3)o1` showed a melting point of 133 to 135 °C.
For `Nn1c(=O)c(=O)[nH]c2c(Br)cc(F)cc21`, the melting point was 293 to 295 °C.
With `O=C(NC(=O)c1c(Cl)cccc1Cl)Nc1ccc(Cl)cn1` the melting point was 220 to 222 °C.
`COc1ccc(C2CCc3ccccc3C2=O)cc1` (stereo unspecified) showed a melting point of 107 to 108 °C.
With `CCN1C(=O)SC(Cc2ccc(NC(=O)/C=C/c3cnn(C)c3-c3ccc(F)cc3)cc2)C1=O` (stereo unspecified) the melting point was 214 to 215 °C.
`COc1ccc(C(=O)Nc2c(Cl)cncc2Cl)c2c1oc1ccc(C(F)(F)F)cc12` showed a melting point of 298 °C.
`CCSc1nc(Nc2ccc(F)cc2F)c(C(=O)OC)cc1F` showed a melting point of 113 to 114 °C.
`Clc1ccc2c(c1)C(n1ccnc1)c1ccccc1CS2` (stereo unspecified) gave a melting point of 175 to 176 °C.
For `Cc1cc(I)cc(C=CC#N)c1`, the melting point was 98 °C.
In the case of `Cc1nc2c(c(=O)[nH]1)-c1cc(S(=O)(=O)Nc3ccc(F)cc3)ccc1CC2`, the melting point is reported as greater than 260 °C.
Molecule `Nc1nc(NC2CC2)c2ncn(/C=C3/CC3(CO)CO)c2n1` has a melting point of 164 to 165 °C.
For `Brc1oc2ccc(Cc3nnn[nH]3)cc2c1-c1ccccc1`, the melting point was 215 to 217 °C.
`Cc1cccc(Cl)c1NC1=NCCN1` gave a melting point of 112 to 114 °C.
Molecule `Cc1cc(S(C)(=O)=O)ccc1-n1nc(C(F)(F)F)cc1-c1ccc(-c2ccco2)cc1` has a melting point of 205 °C.
`CS(=O)(=O)c1cccc(C(Cc2ccc(F)cc2)C(=O)Nc2nc3ccccc3o2)c1` (stereo unspecified) gave a melting point of 99 to 100 °C.
`COCC(=O)Nc1c(C(=O)CC(=O)Nc2nccs2)cccc1C(F)(F)F` gave a melting point of 152 °C.
Molecule `CCN(CC)CCOCCC1CCN(C(=O)N2c3ccccc3C(=O)Nc3cccnc32)CC1` has a melting point of 119 to 120 °C.
For `OCCCCCc1ccc(OCc2coc(/C=C/c3ccccc3)n2)cc1`, the melting point was 93 to 94 °C.
With `COc1c(N2CCC(=NO)CC2)c(F)cc2c(=O)c(C(=O)O)cn(C3CC3)c12` the melting point was 258 to 261 °C.
